Measurements from patent publication US20250250303A1 (THE TRUSTEES OF COLUMBIA UNIVERSITY IN THE CITY OF NEW YORK, priority 2022, published 2025).
Bridge positions count the residues as written; N and C are the ends. Peptide text beside a SMILES is read from it.

What was measured:
IR F64A = biological target: T1, IR F64A (Homo sapiens, UniProt P06213, F91A); assay: IR activation assay in 293 FT cells, IR F64A mutant; type: cell-based; conditions: 10 nM for 10 min
T1 construct: expressed in transfected cells; host or cells: 293 FT cells

IR K484E/L552A = biological target: T2, IR K484E/L552A (Homo sapiens, UniProt P06213, K511E/L579A); assay: IR activation assay in 293 FT cells, IR K484E/L552A double mutant; type: cell-based; conditions: 10 nM for 10 min
T2 construct: expressed in transfected cells; host or cells: 293 FT cells

IR N15K = biological target: T3, IR N15K (Homo sapiens, UniProt P06213, N42K); assay: IR activation assay in 293 FT cells, IR N15K mutant; type: cell-based; conditions: 10 min
T3 construct: expressed in transfected cells; host or cells: 293 FT cells

IR D496K = biological target: T4, IR D496K (Homo sapiens, UniProt P06213, D523K); assay: IR activation assay in 293 FT cells, IR D496K mutant; type: cell-based; conditions: 10 min
T4 construct: expressed in transfected cells; host or cells: 293 FT cells

IR F497A = biological target: T5, IR F497A (Homo sapiens, UniProt P06213, F524A); assay: IR activation assay in 293 FT cells, IR F497A mutant; type: cell-based; conditions: 10 min
T5 construct: expressed in transfected cells; host or cells: 293 FT cells

IR R345A = biological target: T6, IR R345A (Homo sapiens, UniProt P06213, R372A); assay: IR activation assay in 293 FT cells, IR R345A mutant; type: cell-based; conditions: 10 nM for 10 min
T6 construct: expressed in transfected cells; host or cells: 293 FT cells

Insulin tolerance test = type: in vivo, mice; conditions: intraperitoneal
Protocol: Insulin tolerance tests were performed as described previously with some modification. Briefly, 2-3 months old male mice were fasted for 2 hr. and their blood glucose levels (T=0) were measured with tail bleeding using a glucometer (AlphaTRAK). After then, mice were injected intraperitoneally with Humulin (6 nmol/kg body weight), S597 (9 nmol/kg), S597-S20D (9 nmol/kg), S597-W6A (9 nmol/kg), S597-F27A (9 nmol/kg), or S597-N20 (27 nmol/kg), and their blood glucose levels were measured at the indicated time points after injection.

C2C12 cells = assay: MTT assay in C2C12 cells; type: cell-based
Protocol: To examine the function of […] on cell viability and growth, an MTT assay was performed in C2C12 cells.

T47D [1] = assay: IR signaling in cancer cells, T47D; type: cell-based; conditions: 10, 100 or 300 nM for 10 minutes
T47D [2] = assay: Cancer cell proliferation, T47D; type: cell-based
CAL33 = assay: Cancer cell proliferation, CAL33; type: cell-based
[3] = type: in vivo, mice; conditions: 50 U/kg once daily for three days; 2 g glucose/kg after 6 hr. fast
Protocol: For oral glucose tolerance test, mice were fasted for 6 hr. and their blood glucose levels (T=0) were measured with tail bleeding using a glucometer (AlphaTRAK). After then, glucose (2 g/kg body weight) was administered by oral gavage. Blood glucose levels were measured at the indicated time points after glucose administration. For FIG. 31F, 2 months old male mice were fasted for 14 hr. […] One hour later livers were collected.

[4] = Zucker diabetic fatty rats; cited from earlier work
[5] = system: 3T3-L1 and IR-transfected L6 myoblasts; conditions: cited from earlier work
IR D707A [6] = biological target: T7, IR D707A (Homo sapiens, UniProt P06213, D734A); assay: IR activation assay in 293 FT cells, IR D707A mutant; type: cell-based; set-up: expressed in transfected cells; host or cells: 293 FT cells; conditions: 10 min
IR D707A [7] = biological target: T7, IR D707A; assay: IR signaling in IR-D707A MEFs (tamoxifen-inducible IR knockout); type: cell-based, mouse; set-up: expressed in transfected cells; host or cells: mouse embryonic fibroblasts from IR F/F; CRE-ERT mice, retroviral pBabe-puro, tamoxifen-treated; conditions: wide range of concentrations
Protocol: Fresh 0.25% trypsin-EDTA was added. […] The medium was changed the next day to remove debris and floating cells.

T7 sequence (P06213 28-1370 isoform P06213-2 D734A limits assumed): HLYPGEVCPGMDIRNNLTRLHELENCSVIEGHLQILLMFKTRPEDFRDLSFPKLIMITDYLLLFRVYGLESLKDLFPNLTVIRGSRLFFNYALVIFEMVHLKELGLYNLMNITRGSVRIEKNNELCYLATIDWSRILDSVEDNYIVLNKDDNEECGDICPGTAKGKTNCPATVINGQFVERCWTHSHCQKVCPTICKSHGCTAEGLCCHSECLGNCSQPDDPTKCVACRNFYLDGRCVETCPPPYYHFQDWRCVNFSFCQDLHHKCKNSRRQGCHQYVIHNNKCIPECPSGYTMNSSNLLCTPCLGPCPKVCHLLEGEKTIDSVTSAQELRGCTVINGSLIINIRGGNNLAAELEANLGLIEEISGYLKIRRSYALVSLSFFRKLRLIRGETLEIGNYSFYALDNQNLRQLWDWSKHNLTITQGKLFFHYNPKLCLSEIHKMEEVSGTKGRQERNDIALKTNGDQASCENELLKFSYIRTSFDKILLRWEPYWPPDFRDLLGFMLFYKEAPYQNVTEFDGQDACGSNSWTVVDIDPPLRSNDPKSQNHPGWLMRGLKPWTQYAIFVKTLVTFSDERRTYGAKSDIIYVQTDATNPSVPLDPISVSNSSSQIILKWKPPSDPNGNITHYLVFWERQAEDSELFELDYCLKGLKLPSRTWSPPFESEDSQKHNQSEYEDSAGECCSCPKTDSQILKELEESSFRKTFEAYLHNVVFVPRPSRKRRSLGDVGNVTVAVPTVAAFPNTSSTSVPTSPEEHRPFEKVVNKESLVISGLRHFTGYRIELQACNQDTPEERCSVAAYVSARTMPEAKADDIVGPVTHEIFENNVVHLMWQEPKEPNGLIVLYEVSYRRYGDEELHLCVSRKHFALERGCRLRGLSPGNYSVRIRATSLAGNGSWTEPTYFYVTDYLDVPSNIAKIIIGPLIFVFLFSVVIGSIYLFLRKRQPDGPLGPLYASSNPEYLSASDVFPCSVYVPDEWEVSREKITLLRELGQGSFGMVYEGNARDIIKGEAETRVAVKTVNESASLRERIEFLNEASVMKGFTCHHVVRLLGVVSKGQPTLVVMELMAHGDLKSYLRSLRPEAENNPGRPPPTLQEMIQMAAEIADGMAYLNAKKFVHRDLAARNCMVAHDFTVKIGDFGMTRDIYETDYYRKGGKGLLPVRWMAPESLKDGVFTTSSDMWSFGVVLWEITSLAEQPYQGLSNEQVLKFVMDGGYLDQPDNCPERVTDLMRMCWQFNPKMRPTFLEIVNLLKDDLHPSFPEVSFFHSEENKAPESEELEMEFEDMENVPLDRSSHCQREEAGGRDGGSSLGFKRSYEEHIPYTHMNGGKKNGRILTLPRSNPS
T7 sequence (P06213 763-1382 partner limits assumed): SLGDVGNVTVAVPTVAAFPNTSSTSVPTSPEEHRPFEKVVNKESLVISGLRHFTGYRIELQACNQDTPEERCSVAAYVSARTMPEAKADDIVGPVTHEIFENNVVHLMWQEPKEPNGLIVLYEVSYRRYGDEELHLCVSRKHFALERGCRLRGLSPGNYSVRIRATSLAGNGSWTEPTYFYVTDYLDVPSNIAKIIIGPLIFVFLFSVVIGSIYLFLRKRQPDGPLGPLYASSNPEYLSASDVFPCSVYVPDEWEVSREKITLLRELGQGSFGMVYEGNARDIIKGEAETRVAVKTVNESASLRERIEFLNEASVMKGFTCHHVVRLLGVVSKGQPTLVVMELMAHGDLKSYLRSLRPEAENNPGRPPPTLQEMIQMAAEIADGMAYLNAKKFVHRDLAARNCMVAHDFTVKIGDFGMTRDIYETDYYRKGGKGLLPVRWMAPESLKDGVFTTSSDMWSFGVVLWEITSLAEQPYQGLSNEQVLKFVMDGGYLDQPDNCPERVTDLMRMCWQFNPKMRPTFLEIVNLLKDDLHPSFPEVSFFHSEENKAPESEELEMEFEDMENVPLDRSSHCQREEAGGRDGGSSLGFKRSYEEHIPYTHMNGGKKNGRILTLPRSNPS
T6 sequence (P06213 28-1370 isoform P06213-2 R372A limits assumed): as the sequence (P06213 28-1370 isoform P06213-2 D734A limits assumed) above, with R345A, A707D counted along it
T6 sequence (P06213 763-1382 partner limits assumed): as the sequence (P06213 763-1382 partner limits assumed) above
T5 sequence (P06213 28-1370 isoform P06213-2 F524A limits assumed): as the sequence (P06213 28-1370 isoform P06213-2 D734A limits assumed) above, with F497A, A707D counted along it
T5 sequence (P06213 763-1382 partner limits assumed): as the sequence (P06213 763-1382 partner limits assumed) above
T3 sequence (P06213 28-1370 isoform P06213-2 N42K limits assumed): as the sequence (P06213 28-1370 isoform P06213-2 D734A limits assumed) above, with N15K, A707D counted along it
T3 sequence (P06213 763-1382 partner limits assumed): as the sequence (P06213 763-1382 partner limits assumed) above
T4 sequence (P06213 28-1370 isoform P06213-2 D523K limits assumed): as the sequence (P06213 28-1370 isoform P06213-2 D734A limits assumed) above, with D496K, A707D counted along it
T4 sequence (P06213 763-1382 partner limits assumed): as the sequence (P06213 763-1382 partner limits assumed) above
T2 sequence (P06213 28-1370 isoform P06213-2 K511E/L579A limits assumed): as the sequence (P06213 28-1370 isoform P06213-2 D734A limits assumed) above, with K484E, L552A, A707D counted along it
T2 sequence (P06213 763-1382 partner limits assumed): as the sequence (P06213 763-1382 partner limits assumed) above
T1 sequence (P06213 28-1370 isoform P06213-2 F91A limits assumed): as the sequence (P06213 28-1370 isoform P06213-2 D734A limits assumed) above, with F64A, A707D counted along it
T1 sequence (P06213 763-1382 partner limits assumed): as the sequence (P06213 763-1382 partner limits assumed) above

CC[C@H](C)[C@H](NC(=O)[C@H](CCC(N)=O)NC(=O)[C@H](C)NC(=O)[C@H](Cc1c[nH]c2ccccc12)NC(=O)[C@H](CCC(=O)O)NC(=O)[C@H](CCC(=O)O)NC(=O)[C@H](CCC(=O)O)NC(=O)[C@H](CC(C)C)NC(=O)[C@H](CO)NC(C)=O)C(=O)N[C@@H](CCC(=O)O)C(=O)N[C@H]1CSSC[C@@H](C(=O)N2CCC[C@H]2C(=O)N[C@@H](CO)C(=O)N[C@@H](CCC(=O)O)C(=O)N[C@@H](CO)C(=O)N[C@@H](Cc2ccccc2)C(=O)N[C@@H](Cc2ccc(O)cc2)C(=O)N[C@@H](CC(=O)O)C(=O)N[C@@H](Cc2c[nH]c3ccccc23)C(=O)N[C@@H](Cc2ccccc2)C(=O)N[C@@H](CCC(=O)O)C(=O)N[C@@H](CCCNC(=N)N)C(=O)N[C@@H](CCC(N)=O)C(=O)N[C@@H](CC(C)C)C(N)=O)NC(=O)CNC(=O)[C@H](CCCNC(=N)N)NC(=O)CNC(=O)[C@H](Cc2ccc(O)cc2)NC(=O)[C@H](C(C)C)NC(=O)[C@H](CCC(=O)O)NC1=O [S597] (Ac-SLEEEWAQIECEVYGRGCPSESFYDWFERQL-NH2; disulfide 11-18)
IR activation (pY IR) (IR F64A): could still be activated | IR activation (pY IR) (IR K484E/L552A): could not be activated efficiently | IR activation (pY IR) (IR N15K): fully activated | IR activation (pY IR) (IR D496K): fully activated | IR activation (pY IR) (IR F497A): fully activated | IR activation (pY IR) (IR R345A): fully activated | blood glucose levels in ITT (Insulin tolerance test; FIGS. 10A, 8F, 8G): lowered | blood glucose in insulin tolerance assays (Insulin tolerance test; FIGS. 12B, 12C): lowered blood glucose in mice as effectively as insulin | cell viability and growth (C2C12 cells): does not promote cell proliferation as efficiently as insulin | IR signaling (T47D [1]): failed to activate | cell proliferation (T47D [2]): did not promote | cell proliferation (CAL33): did not promote | area under curve (AUC) for blood glucose during OGTT [3]: No significant | blood glucose [4]: lowers | MAPK pathway [5]: largely inactive | PI3K-AKT pathway [5]: selectively activates | IR activation (pY IR) (IR D707A [6]): fully activated | phosphorylation of AKT (pAKT) (IR D707A [7]): significantly increased | phosphorylation of ERK (pERK) (IR D707A [7]): significantly increased | phosphorylation of IR (pY IR) (IR D707A [7]): significantly increased
